# Assay results published in the supplement of paper PMC10307832.
# Legend:
# Assay in all cases: relative viability (nuclei count vs DMSO), 5 days (fraction); higher = more cells survive
# [1] = compound: C[C@@]1(C(=O)Nc2ccc(F)nc2)CCCN1c1nc(Nc2cc(C3CC3)n[nH]2)c2cccn2n1 + Cc1nc(NC(=O)N2CCC[C@H]2C(N)=O)sc1-c1ccnc(C(C)(C)C(F)(F)F)c1 [Alpelisib] (partner 2 µM)
# How it was run: (§1)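 Medians of duplicate plates are given as relative viability. That measure is the nuclei count in treated wells divided by the count in vehicle wells. Counts were taken on 4× images of lung cancer cell lines in 1536-well plates, 5 days after pin-tool dosing the day after seeding with one drug alone or a fixed anchor-drug dose plus five library-drug doses (not always all listed) in √10 steps.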
# Motesanib + Palbociclib = compound: CC1(C)CNc2cc(NC(=O)c3cccnc3NCc3ccncc3)ccc21 [Motesanib] + CC(=O)c1c(C)c2cnc(Nc3ccc(N4CCNCC4)cn3)nc2n(C2CCCC2)c1=O [Palbociclib] (partner 0.5 µM)
# How it was run: as §1
# [2] = compound: C[C@@]1(C(=O)Nc2ccc(F)nc2)CCCN1c1nc(Nc2cc(C3CC3)n[nH]2)c2cccn2n1 + Nc1ncn([C@H]2C[C@H](O)[C@@H](CO)O2)c(=O)n1 [Decitabine] (partner 2 µM)
# How it was run: as §1
# Motesanib + Pemetrexed = compound: CC1(C)CNc2cc(NC(=O)c3cccnc3NCc3ccncc3)ccc21 [Motesanib] + Nc1nc2[nH]cc(CCc3ccc(C(=O)N[C@@H](CCC(=O)O)C(=O)O)cc3)c2c(=O)[nH]1 [Pemetrexed] (partner 0.2 µM)
# How it was run: as §1
Cell Line,relative viability ([1]; first compound 0.04 µM),relative viability ([1]; first compound 0.1265 µM),relative viability ([1]; first compound 0.4 µM),relative viability ([1]; first compound 1.265 µM),relative viability (Motesanib + Palbociclib; first compound 0.01 µM),relative viability (Motesanib + Palbociclib; first compound 0.03162 µM),relative viability (Motesanib + Palbociclib; first compound 0.1 µM),relative viability (Motesanib + Palbociclib; first compound 0.3162 µM),relative viability (Motesanib + Palbociclib; first compound 1 µM),relative viability ([2]; first compound 0.04 µM),relative viability ([2]; first compound 0.1265 µM),relative viability ([2]; first compound 0.4 µM),relative viability ([2]; first compound 1.265 µM),relative viability (Motesanib + Pemetrexed; first compound 0.01 µM),relative viability (Motesanib + Pemetrexed; first compound 0.03162 µM),relative viability (Motesanib + Pemetrexed; first compound 0.1 µM),relative viability (Motesanib + Pemetrexed; first compound 0.3162 µM),relative viability (Motesanib + Pemetrexed; first compound 1 µM)
NCI-H460,0.401,0.207,0.222,0.389,0.278,0.162,0.142,0.197,0.137,0.506,0.446,0.413,0.346,0.0586,0.0647,0.0699,0.0738,0.0745
NCI-H661,0.592,0.665,0.793,0.566,0.43,0.414,0.43,0.435,0.402,0.528,0.514,0.54,0.547,0.862,0.925,0.887,0.986,0.961
HCC-15,0.896,0.757,0.829,0.937,0.777,0.668,0.695,0.768,0.702,0.48,0.375,0.43,0.311,0.212,0.203,0.188,0.179,0.202
LCLC-103H,1.01,0.818,0.829,1.08,0.505,0.469,0.525,0.555,0.513,0.745,0.661,0.71,0.712,0.458,0.435,0.429,0.505,0.458
NCI-H441,0.616,0.547,0.492,0.56,0.237,0.214,0.268,0.2,0.23,0.24,0.213,0.23,0.223,0.243,0.234,0.238,0.259,0.196
EPLC-272H,1.03,0.876,0.719,1.1,0.284,0.3,0.344,0.36,0.381,0.348,0.306,0.279,0.336,0.656,0.285,0.254,0.273,0.243
